Test system: MMP1
Assay: MMP1 expression in human skin explants after UV-irradiation (immunohistochemistry)
Format: cell-based
Procedure: The effect of the polypeptide IK34720 (SEQ ID NO: 3) on MMP-1 activity in human skin was evaluated using the following protocol.
FIGS. 17 and 18 illustrate the effect of the polypeptide IK34720 (SEQ ID NO: 3) on MMP1 expression, in accordance with the following protocol.
Human skin (2× human explant tissues) removed at elective surgery was cleaned, dissected and cut into pieces of approx. 5mm×5mm. Each piece was placed in a well of a 96 well plate, with individual plates prepared to assess the effects 3 hrs post treatment. Skin was subjected to UV-radiation from solar-simulated UV source for 1.5 h (UVR), or non-irradiation (SHAM), and treated immediately after with a vehicle control, Calcitriol (1 nM) or the polypeptide IK34720 (SEQ ID NO: 3) at concentrations of 50 μM, 250 μM or 500 uM. In FIG. 17, IK50, IK250 and IK500 as μM concentrations refers to 15 μg, 75 μg and 150 μg of IK34720 per 120 μL culture medium/explant, respectively.
Samples harvested at 3 hrs were fixed, sectioned, immunohistochemically stained for MMP1 and quantified for MMP1 expression, by expressing epidermal area stained for MMP1 as a function of total epidermal area examined.

RSKAKNPLYRRRRRRRRR [IK34720, 18-residue polypeptide: … with a C-terminal polyarginine region of 8 arginines]
percentage of MMP1 positive cells (500 μM, 3 hrs, FIG. 18): statistically significantly reduced | cells staining for MMP-1 (3 hrs post irradiation/treatment, Calcitriol 1 nM, IK34720 50, 250 or 500 uM, FIG. 17): fewer stained cells

Source: patent US20220409510A1, “Polypeptides And Methods For Improving Skin Conditions” (Interk Peptide Therapeutics Limited, priority 2018, published 2022)
